The source made the active and inactive calls.
Assays:
[1] = Luminescence Cell-Based Dose Response HTS to Identify Activators of Luciferase Translation or Activity in H4 […] Cells. [Related pubchem assays: 1829 (Project Summary), 1814 (Primary HTS)]; format: functional
[2] = Luminescence Cell-Based Dose Confirmation HTS to Identify Activators of 5'UTR Stem-Loop Driven Alpha-Synuclein mRNA Translation in H4 Neuroglioblastoma Cells. [Related pubchem assays: 1829 (Project Summary), 1814 (Primary HTS)]; format: functional
Cytochrome P450 3A4 = Cytochrome P450 3A4 (Homo sapiens, UniProt P08684);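 note: CYP3A4 tested as one member of a cytochrome P450 panel screen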
Cytochrome P450 1A2 = biological target: T1, Cytochrome P450 1A2 (Homo sapiens, UniProt P05177);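 note: PubChem cytochrome P450 panel assay, CYP1A2 panel member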
T1 sequence (P05177 whole entry): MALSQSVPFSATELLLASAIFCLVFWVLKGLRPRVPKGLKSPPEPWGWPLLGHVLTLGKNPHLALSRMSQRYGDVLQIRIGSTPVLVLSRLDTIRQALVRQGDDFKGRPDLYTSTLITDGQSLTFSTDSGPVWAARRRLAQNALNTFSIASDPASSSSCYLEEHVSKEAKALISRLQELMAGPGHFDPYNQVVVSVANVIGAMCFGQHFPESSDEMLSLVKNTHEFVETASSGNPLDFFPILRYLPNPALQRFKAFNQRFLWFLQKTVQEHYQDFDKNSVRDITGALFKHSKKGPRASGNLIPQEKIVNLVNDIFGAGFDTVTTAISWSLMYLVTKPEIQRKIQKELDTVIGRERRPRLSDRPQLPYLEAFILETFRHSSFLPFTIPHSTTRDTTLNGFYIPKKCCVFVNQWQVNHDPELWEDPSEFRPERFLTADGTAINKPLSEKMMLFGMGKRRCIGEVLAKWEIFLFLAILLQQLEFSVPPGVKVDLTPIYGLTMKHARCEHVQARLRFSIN

[3] = biological target: T2, Polyadenylate-binding protein 1 (Homo sapiens, UniProt P11940); assay: MLLE domain peptide-binding blockers, IC50 – biochemical, fluorescence polarization, FITC-PAM2 peptide, dose response (AID 602259); format: functional; details: read-out: IC50_Mean
[4] = biological target: T2, Polyadenylate-binding protein 1; assay: MLLE binding blockers, Cy5 peptide tracer – biochemical, fluorescence polarization, Cy5-PAM2 peptide, secondary, miRNA deadenylation inhibitor project, dose response (AID 602260); format: functional; details: read-out: IC50_Mean
[5] = test system: Streptococcus sp. 'group A'; assay: Streptococcus pyogenes SK(-)GAS viability under kanamycin – luminescence, BacTiterGlo, confirmation, counter-screen for streptokinase expression inhibitor project, dose response (AID 1900); format: functional, organism-based
Streptokinase A = biological target: T3, Streptokinase A (Streptococcus pyogenes serotype M1, UniProt P10520); assay: viability-normalized secreted streptokinase activity reduction – plasminogen activation absorbance, OD405, dose response (AID 1914); format: functional, Streptococcus pyogenes M1 GAS;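 note: secreted streptokinase activity via plasminogen activation per viability signal from cell pellet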
T3 sequence (P10520 whole entry): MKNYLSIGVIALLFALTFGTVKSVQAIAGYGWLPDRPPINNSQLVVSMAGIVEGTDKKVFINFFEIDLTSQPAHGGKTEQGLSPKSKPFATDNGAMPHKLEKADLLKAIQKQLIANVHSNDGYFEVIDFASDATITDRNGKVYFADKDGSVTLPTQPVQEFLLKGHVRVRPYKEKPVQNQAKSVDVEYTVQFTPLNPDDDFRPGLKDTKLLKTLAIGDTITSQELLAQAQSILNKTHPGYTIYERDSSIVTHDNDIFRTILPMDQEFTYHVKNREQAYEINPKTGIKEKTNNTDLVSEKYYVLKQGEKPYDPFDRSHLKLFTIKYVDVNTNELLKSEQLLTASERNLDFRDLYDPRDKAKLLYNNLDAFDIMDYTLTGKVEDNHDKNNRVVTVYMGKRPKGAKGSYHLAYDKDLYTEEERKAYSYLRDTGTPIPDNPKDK

Streptococcus = assay: GAS UMAA2166 growth inhibition – luminescence, BacTiterGlo, counter-screen for streptokinase expression inhibitor project, dose response (AID 1915); format: functional, organism-based;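 note: potency for reduction of bacterial viability or growth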
H4 = assay: Luminescence Cell-Based Dose Response HTS to Identify Activators of 5'UTR Stem-Loop Driven Prion Protein mRNA Translation in H4 Neuroglioblastoma Cells. [Related pubchem assays: 1829 (Project Summary), 1814 (Primary HTS)]; format: functional; details: Homo sapiens
Cytochrome P450 2C19 = Cytochrome P450 2C19 (Homo sapiens, UniProt P33261); assay: Cytochrome panel assay with activity outcomes. Panel member name: p450-cyp2c19 Compounds with AC50 equal or less than 10 uM are considered active; format: functional; details: read-out: AC50
[6] = biological target: T4, Heat shock factor protein 1 (Mus musculus, UniProt P38532); assay: decrease of HSF1-responsive luciferase luminescence – cell-based, NIH3T3, dose retest, confirmation (AID 2382); format: functional;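 note: NIH3T3 fibroblasts with HSF1-driven luciferase reporter stressed by proteasome inhibitor MG132; luminescence from HSF1-driven luciferase expression after 8 hours of MG132 stress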
T4 sequence (P38532 whole entry): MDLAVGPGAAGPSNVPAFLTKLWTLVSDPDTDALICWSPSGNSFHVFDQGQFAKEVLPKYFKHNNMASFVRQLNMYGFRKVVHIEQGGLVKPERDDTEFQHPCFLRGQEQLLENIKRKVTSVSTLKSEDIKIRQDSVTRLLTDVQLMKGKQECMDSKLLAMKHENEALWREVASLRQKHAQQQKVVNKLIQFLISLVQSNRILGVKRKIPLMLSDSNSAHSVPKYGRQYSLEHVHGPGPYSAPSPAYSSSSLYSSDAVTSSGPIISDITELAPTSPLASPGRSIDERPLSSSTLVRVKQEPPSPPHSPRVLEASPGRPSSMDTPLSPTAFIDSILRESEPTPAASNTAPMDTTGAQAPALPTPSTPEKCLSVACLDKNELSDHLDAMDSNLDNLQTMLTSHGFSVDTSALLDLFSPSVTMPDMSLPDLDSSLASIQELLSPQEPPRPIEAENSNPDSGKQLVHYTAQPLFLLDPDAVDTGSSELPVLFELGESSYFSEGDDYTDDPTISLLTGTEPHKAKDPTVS

Chain of Cytochrome P450 3A4 (P08684 whole entry): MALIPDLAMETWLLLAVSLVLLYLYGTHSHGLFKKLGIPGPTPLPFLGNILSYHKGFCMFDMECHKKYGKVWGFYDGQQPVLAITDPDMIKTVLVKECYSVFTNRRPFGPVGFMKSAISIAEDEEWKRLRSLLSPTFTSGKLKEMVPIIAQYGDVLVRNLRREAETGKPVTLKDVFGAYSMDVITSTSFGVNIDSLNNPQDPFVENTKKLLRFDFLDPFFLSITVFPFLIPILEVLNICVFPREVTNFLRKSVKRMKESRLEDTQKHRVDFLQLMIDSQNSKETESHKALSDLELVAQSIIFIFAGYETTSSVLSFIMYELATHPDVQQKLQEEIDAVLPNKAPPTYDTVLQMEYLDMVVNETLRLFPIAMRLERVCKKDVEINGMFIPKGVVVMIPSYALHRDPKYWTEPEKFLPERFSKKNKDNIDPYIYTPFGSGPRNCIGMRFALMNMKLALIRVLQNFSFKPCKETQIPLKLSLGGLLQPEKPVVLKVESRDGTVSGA
Chain of Cytochrome P450 2C19 (P33261 whole entry): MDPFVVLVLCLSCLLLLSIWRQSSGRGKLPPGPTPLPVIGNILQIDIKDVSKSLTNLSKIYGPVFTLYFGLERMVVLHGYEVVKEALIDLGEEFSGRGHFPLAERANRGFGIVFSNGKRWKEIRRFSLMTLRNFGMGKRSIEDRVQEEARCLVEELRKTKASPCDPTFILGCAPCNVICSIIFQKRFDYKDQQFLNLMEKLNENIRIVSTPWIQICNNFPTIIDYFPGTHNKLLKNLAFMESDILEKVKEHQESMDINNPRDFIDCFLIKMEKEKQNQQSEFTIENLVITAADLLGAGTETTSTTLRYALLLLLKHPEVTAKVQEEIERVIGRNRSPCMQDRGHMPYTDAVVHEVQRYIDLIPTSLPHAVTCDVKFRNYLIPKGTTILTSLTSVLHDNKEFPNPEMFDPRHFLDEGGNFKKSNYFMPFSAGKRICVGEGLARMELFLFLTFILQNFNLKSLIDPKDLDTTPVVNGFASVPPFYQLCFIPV
T2 sequence (P11940 whole entry, the tested form may be a part): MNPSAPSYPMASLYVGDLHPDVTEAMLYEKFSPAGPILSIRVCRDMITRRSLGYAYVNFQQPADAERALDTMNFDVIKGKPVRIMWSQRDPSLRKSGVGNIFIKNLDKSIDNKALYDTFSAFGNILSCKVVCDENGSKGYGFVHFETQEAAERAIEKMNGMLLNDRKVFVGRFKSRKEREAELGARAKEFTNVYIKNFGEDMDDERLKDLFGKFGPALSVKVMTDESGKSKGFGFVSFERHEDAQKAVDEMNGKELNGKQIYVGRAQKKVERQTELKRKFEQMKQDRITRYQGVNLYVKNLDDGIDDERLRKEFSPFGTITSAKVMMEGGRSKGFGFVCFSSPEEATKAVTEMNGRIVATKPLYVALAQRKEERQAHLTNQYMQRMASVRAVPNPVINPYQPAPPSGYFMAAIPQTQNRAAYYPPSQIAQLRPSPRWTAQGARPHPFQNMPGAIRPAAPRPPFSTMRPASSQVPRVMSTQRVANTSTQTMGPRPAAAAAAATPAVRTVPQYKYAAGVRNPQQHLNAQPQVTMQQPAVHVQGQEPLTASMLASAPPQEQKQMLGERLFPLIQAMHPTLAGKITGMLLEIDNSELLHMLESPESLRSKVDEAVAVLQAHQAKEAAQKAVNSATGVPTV

SMILES: O=C(c1ccccn1)c1cc2ccccc2n1S(=O)(=O)c1ccccc1
- EC50 [1]: 55.9 µM (active)
- EC50 [2]: 20.5 µM (active)

SMILES: O=c1c(-c2cccc(F)c2)nc2cncnc2n1Cc1ccccc1Cl
- AC50 (Cytochrome P450 3A4): 15.8 µM (inconclusive)

SMILES: Cc1ccc(NC(S)=Nc2ccc(Br)cc2)cc1
- AC50 (Cytochrome P450 3A4): 14.1 µM (inconclusive)

SMILES: Cc1cnc(CNc2cc(-c3cccnc3)ncn2)cn1
- AC50 (Cytochrome P450 1A2): 15.8 µM (inconclusive)
- AC50 (Cytochrome P450 3A4): 15.8 µM (inconclusive)

SMILES: Cc1ccc(-c2ccc(/C=N/NC(=S)Nc3ccccc3)o2)cc1[N+](=O)[O-]
- AC50 (Cytochrome P450 1A2): 3.55 µM (inconclusive)
- IC50 [3]: > 66 µM (inactive)
- IC50 [4]: > 66 µM (inactive)

SMILES: C/C(=N\NC(=O)CSc1[nH]c(C)nc1[N+](=O)[O-])c1ccc(F)cc1
- EC50 [5]: > 150 µM (not active)
- EC50 (Streptokinase A): > 150 µM (not active)
- EC50 (Streptococcus): > 150 µM (not active)
- EC50 [1]: 14.3 µM (active)
- EC50 [2]: 15 µM (active)
- EC50 (H4): 97.5 µM (active)

SMILES: COc1ccc(CCNC(=O)c2sc(=S)n(C)c2N)cc1
- IC50 [3]: > 66 µM (inactive)
- IC50 [4]: > 66 µM (inactive)

SMILES: CCOC(=O)c1ccc(N[S+]([O-])C23CC4CC(CC(C4)C2)C3)cc1 (stereo not given)
- EC50 [1]: > 120 µM (not active)
- EC50 [2]: > 120 µM (not active)
- EC50 (H4): > 120 µM (not active)

SMILES: Cc1ccc(N2CCN(C(=O)c3cn(CC4CCCCC4)nn3)C(C)C2)cc1 (stereo not given)
- EC50 [1]: 0.418 µM (active)
- EC50 [2]: 2.49 µM (active)

SMILES: O=C(c1cnsn1)N1CCC(CO)(Cc2cccc(F)c2)CC1
- EC50 [1]: 15.2 µM (active)
- EC50 [2]: 14.8 µM (active)
- EC50 (H4): 75.8 µM (active)

SMILES: CCN1CCN(c2cc3c(nn2)Oc2ccccc2N3C)CC1
- EC50 [1]: 44.6 µM (active)
- EC50 [2]: 11.4 µM (active)
- EC50 (H4): 0.573 µM (active)

SMILES: N#C/C(=C\c1ccc(O)c(O)c1)C(=O)OCCc1cccs1
- AC50 (Cytochrome P450 3A4): 20 µM (inconclusive)

SMILES: Cc1noc(C)c1-c1cc(Nc2ccc(F)cc2)ncn1
- AC50 (Cytochrome P450 3A4): 20 µM (inconclusive)
- AC50 (Cytochrome P450 2C19): 39.8 µM (inconclusive)

SMILES: Cc1ccc2cc(C=C(C#N)C#N)c(Cl)nc2c1
- IC50 [3]: 28 µM (inactive)
- IC50 [4]: 44.8 µM (inactive)

SMILES: COc1ccc2cc(C(c3nnnn3C3CCCC3)N3CCc4ccccc4C3)c(O)nc2c1 (stereo not given)
- IC50 [3]: > 66 µM (inactive)
- IC50 [4]: > 66 µM (inactive)

SMILES: C=CCNc1nnnc2c1sc1nc(N3CCOCC3)c3c(c12)CCCC3
- EC50 [6]: > 195 µM (not active)

SMILES: Cn1c(S)nnc1CCCOc1ccc(Cl)cc1Cl
- EC50 [1]: 22.5 µM (active)
- EC50 [2]: > 120 µM (not active)
- EC50 (H4): 7.51 µM (active)

SMILES: CCNc1ncc2nc(C)c(=O)n(Cc3ccc(F)cc3)c2n1
- AC50 (Cytochrome P450 3A4): 7.94 µM (inconclusive)
- AC50 (Cytochrome P450 2C19): 6.31 µM (inconclusive)

SMILES: O=C(CCN1CCC2CCC(C2)C1)c1ccccc1 (stereo not given)
- IC50 [3]: > 66 µM (inactive)
- IC50 [4]: > 66 µM (inactive)

SMILES: Cc1cc(C)nc(SCNC(=O)c2ccccc2)n1
- IC50 [3]: > 66 µM (inactive)
- IC50 [4]: > 66 µM (inactive)

SMILES: CCc1c(C(=O)OC)ncc2[nH]c3cc(OC)c(OC)cc3c12
- AC50 (Cytochrome P450 3A4): 15.8 µM (inconclusive)

SMILES: Cc1cc(NC(=O)c2ccc3nc(C)sc3c2)no1
- EC50 [6]: 0.167 µM (active)

SMILES: O=C1C(Cl)=C(NCC2CCCO2)C(=O)N1CCc1ccccc1 (stereo not given)
- EC50 [1]: 15.4 µM (active)
- EC50 [2]: 12.9 µM (active)
- EC50 (H4): 13.1 µM (active)

SMILES: COC(=O)c1ccc2ccn(CC(=O)NC3CCCCC3)c2c1
- AC50 (Cytochrome P450 3A4): 4.47 µM (inconclusive)

SMILES: COc1ccc(COC(=O)N/N=C2/C[C@@H](O)[C@@H](O)[C@@H]3[C@H]4C(=O)N(c5ccc(F)cc5F)C(=O)[C@@H]4CC[C@@H]23)cc1
- AC50 (Cytochrome P450 3A4): 3.16 µM (inconclusive)

SMILES: COc1cc(SC)ccc1C(=O)OCC(=O)NC1CCCC1
- EC50 [6]: > 195 µM (not active)

SMILES: CN(C(=O)CCN1C(=O)/C(=C/c2ccccc2F)SC1=S)C1CCS(=O)(=O)C1 (stereo not given)
- IC50 [3]: > 66 µM (inactive)
- IC50 [4]: > 66 µM (inactive)

SMILES: C/C(=N\NC(=S)Nc1cccc(C)c1)c1cc2ccccc2o1
- EC50 [5]: 3.44 µM (active)
- EC50 (Streptokinase A): > 150 µM (not active)
- EC50 (Streptococcus): > 150 µM (not active)
- IC50 [3]: > 66 µM (inactive)
- IC50 [4]: > 66 µM (inactive)

SMILES: Cc1cc(Cl)ccc1N=C(S)NC(C)(C)C
- IC50 [3]: > 66 µM (inactive)
- IC50 [4]: > 66 µM (inactive)

SMILES: COc1ccc(-n2c(S)nnc2COc2cccc(C)c2)cc1
- EC50 [6]: > 195 µM (not active)

SMILES: O=c1c(-c2ccc(F)cc2)nc2cnc(Nc3ccccc3)nc2n1C[C@H]1CCCO1
- AC50 (Cytochrome P450 1A2): 2 µM (inconclusive)
- AC50 (Cytochrome P450 3A4): 12.6 µM (inconclusive)

SMILES: COc1ccccc1NC(=O)Cc1csc(N=C(S)Nc2ccccc2)n1
- IC50 [3]: > 66 µM (inactive)
- IC50 [4]: > 66 µM (inactive)

SMILES: O=C(CCNC(=O)c1ccccc1)OCN1C(=O)c2ccccc2C1=O
- AC50 (Cytochrome P450 3A4): 15.8 µM (inconclusive)
- AC50 (Cytochrome P450 2C19): 39.8 µM (inconclusive)

SMILES: COC(=O)c1cc(/C=C/c2ccccc2)[nH]n1
- EC50 [1]: 6.84 µM (active)
- EC50 [2]: 25.4 µM (active)
- EC50 (H4): 18.1 µM (active)

SMILES: COc1ccc(-n2c(=O)c(-c3cccs3)nc3cnc(N4CCN(C)CC4)nc32)cc1
- AC50 (Cytochrome P450 1A2): 2.51 µM (inconclusive)
- AC50 (Cytochrome P450 3A4): 25.1 µM (inconclusive)

SMILES: CCOc1cc(NC(=O)c2ccc(OC)cc2)c(OCC)cc1N=C(S)Nc1ccccc1
- AC50 (Cytochrome P450 1A2): 7.08 µM (inconclusive)
- AC50 (Cytochrome P450 3A4): 14.1 µM (inconclusive)
- AC50 (Cytochrome P450 2C19): 2.51 µM (inconclusive)

SMILES: Clc1ccc(COn2ccnc2)cc1Cl
- EC50 [1]: > 120 µM (not active)
- EC50 [2]: > 120 µM (not active)
- EC50 (H4): > 120 µM (not active)
